Reference: US11247993B2, “Pyridone derivative, composition and use as antiviral drug thereof” (priority 2018, dated 2022)

Legend:
[1] = system: influenza virus A/PR/8/34 (H1N1); assay: organism not typed; type: cell-based; details: MDCK cells, A/PR/8/34 (H1N1), 5 days, CCK8; read-out: EC50
MDCK cells = assay: in vitro; type: cell-based
Protocol: Method for cytotoxicity study: The cytotoxicity assay and antiviral activity assay of the compounds were performed in parallel, except for the absence of virus, other experimental conditions were consistent with the antiviral activity assay. After 5 days of culture, the cell viability was measured using the cell viability detection kit CCK8. Raw data were used for calculating compound cytotoxicity (CC50) (see Table 1 for results).

O=C1c2c(O)c(=O)ccn2N([C@@H]2c3ccccc3SCc3c2ccc(F)c3F)[C@@H]2COCCN12 [Baloxavir acid, reference compound]
EC50 [1]: 1.4 nM | CC50 (MDCK cells): > 1000 nM
